The source made the active and inactive calls. The rule behind the calls is not given here.
Key:
[1] = (§1) Neuroprotective activity against H2O2-induced neuronal death in Sprague-Dawley rat primary cerebellar granule neurons assessed as increase in cell viability preincubated for 24 hrs followed by H2O2 addition and measured after 24 hrs by MTT assay; type: functional, Cerebellar granule neurone; details: time 48 hrs
[2] = test system: Cerebellar granule neurone; assay: (§2) Neuroprotective activity against H2O2-induced neuronal death in Sprague-Dawley rat primary cerebellar granule neurons assessed as reduction in nuclear condensation at 0.5 to 300 uM preincubated for 24 hrs followed by H2O2 addition and measured after 24 hrs by Hoechst 33258 staining based confocal immunofluorescence microscopic analysis; type: functional, tissue-based; details: dose 0.5-300 µM, time 48.0 hrs
[3] = Neuroprotective activity against H2O2-induced neuronal death in Sprague-Dawley rat primary cerebellar granule neurons assessed as increase in cell viability preincubated for 24 hrs followed by H2O2 addition and measured after 24 hrs by MTT assay relative to control; type: functional, Cerebellar granule neurone; details: time 48 hrs
[4] = test system: Cerebellar granule neurone; assay: as §2, with “neurite fragmentation” for “nuclear condensation”; type: functional, tissue-based; details: dose 0.5-300 µM, time 48.0 hrs
[5] = Cytotoxicity against Sprague-Dawley rat primary cerebellar granule neurons assessed as reduction in cell viability measured after 48 hrs by MTT assay; type: tissue-based, Cerebellar granule neurone; details: read-out: LC50
[6] = Cytotoxicity against […] cells assessed as reduction in cell viability measured after 24 hrs by neutral red staining based spectrophotometric method; details: read-out: LC50
[7] = target: T1, Acetylcholinesterase (Homo sapiens, UniProt P22303); assay: Inhibition of human erythrocytes AChE using acetylthiocholine iodide as substrate measured after 30 mins by Ellman's method
[8] = test system: Cerebellar granule neurone; assay: Neuroprotective activity against H2O2-induced neuronal death in Sprague-Dawley rat primary cerebellar granule neurons assessed as increase in cell viability at 0.5 to 10 uM preincubated for 24 hrs followed by H2O2 addition and measured after 24 hrs by MTT assay; type: functional, tissue-based; details: dose 0.5-10 µM, time 48.0 hrs
[9] = Neuroprotective activity against H2O2-induced cell death in […] cells at 0.5 uM preincubated for 24 hrs followed by H2O2 addition and measured after 24 hrs by neutral red staining based spectrophotometric method relative to control; type: functional; details: time 48 hrs
[10] = test system: Cerebellar granule neurone; assay: Neuroprotective activity against H2O2-induced neuronal death in Sprague-Dawley rat primary cerebellar granule neurons assessed as increase in cell viability at 0.5 to 300 uM preincubated for 24 hrs followed by H2O2 addition and measured after 24 hrs by MTT assay; type: functional, tissue-based; details: dose 0.5-300 µM, time 48.0 hrs
[11] = test system: Cerebellar granule neurone; assay: as §1; type: functional; details: time 48.0 hrs
[12] = target: T1, Acetylcholinesterase; assay: Potency index, ratio of physostigmine IC50 to test compound IC50 for human erythrocytes AChE

T1 sequence (P22303 whole entry): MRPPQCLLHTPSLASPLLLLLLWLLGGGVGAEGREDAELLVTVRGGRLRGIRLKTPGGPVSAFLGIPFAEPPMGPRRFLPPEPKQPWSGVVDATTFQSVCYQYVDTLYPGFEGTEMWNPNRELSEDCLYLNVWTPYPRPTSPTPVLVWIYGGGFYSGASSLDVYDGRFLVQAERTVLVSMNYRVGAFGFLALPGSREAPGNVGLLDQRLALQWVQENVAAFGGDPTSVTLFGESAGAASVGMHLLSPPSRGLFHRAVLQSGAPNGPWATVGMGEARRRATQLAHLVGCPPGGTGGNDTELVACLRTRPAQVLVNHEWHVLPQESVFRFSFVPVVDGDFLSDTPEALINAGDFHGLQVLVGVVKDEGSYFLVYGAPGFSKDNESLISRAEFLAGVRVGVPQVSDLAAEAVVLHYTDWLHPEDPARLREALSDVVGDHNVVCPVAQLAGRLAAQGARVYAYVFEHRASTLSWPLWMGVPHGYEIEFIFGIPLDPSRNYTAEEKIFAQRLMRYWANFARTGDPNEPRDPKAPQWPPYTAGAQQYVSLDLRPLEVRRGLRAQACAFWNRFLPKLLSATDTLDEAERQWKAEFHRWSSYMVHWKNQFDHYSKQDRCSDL

## C=CC(C)(C)c1cc([C@@H]2CC(=O)c3c(O)cc(O)c(CC=C(C)C)c3O2)c(O)cc1O
[1]
  EC: 5 µM
[2]
  Activity: Active
[3]
  %max: 16.37%
[4]
  Activity: Active
[5]
  CC50 at 48 h: 12.5 µM
[6]
  CC50 at 24 h: 13 µM
[7]
  IC50: 29 µM
[8]
  Activity: inactive
[9]
  Activity: 51.76%

## O=C1C[C@@H](c2ccccc2)Oc2cc(O)cc(O)c21 [PINOCEMBRIN]
[5]
  CC50 at 48 h: 247 µM
[10]
  Activity: inactive

## C=CC(C)(C)c1cc([C@@H]2CC(=O)c3c(O)cc(O)c(CC=C(C)C)c3O2)c(OC)cc1O
[1]
  EC: 200 µM
[11]
  Activity: Dose-dependent effect
[3]
  %max: 22.3%
[5]
  CC50 at 48 h: > 300 µM

## CC(C)=CCc1c(O)cc(O)c2c1O[C@H](c1ccccc1)CC2=O [GLABRANIN]
[12]
  Ratio IC50: 12
[1]
  EC: 10 µM
[2]
  Activity: Active
[3]
  %max: 20.34%
[4]
  Activity: Active
[5]
  CC50 at 48 h: 44.5 µM
[6]
  CC50 at 24 h: 27.3 µM
[7]
  IC50: 0.0064 µM
[8]
  Activity: inactive
[9]
  Activity: 31.32%

## CC(C)=CCc1c(O)cc2c(c1O)C(=O)C[C@@H](c1ccc(O)c(O)c1CC=C(C)C)O2
[5]
  CC50 at 48 h: > 300 µM
[10]
  Activity: inactive

## C=CC(C)(C)c1cc([C@@H]2CC(=O)c3c(cc(O)c(CC=C(C)C)c3O)O2)c(OC)cc1O
[5]
  CC50 at 48 h: 40.7 µM
[10]
  Activity: inactive

From ChEMBL document CHEMBL4765440, “Neuroprotective effects of prenylated flavanones isolated from Dalea species, in vitro and in silico studies” (Eur J Med Chem, 2020)
